Data published in patent publication US8703961B2, “Thiazole derivatives for the treatment of diseases such as cancer” (Merck Patent GmbH, priority 2009, dated 2014).

Tests used:
Test in all cases: filter binding kinase assay
Assay type in all cases: biochemical
PAK6 = biological target: T1, PAK6 (Homo sapiens, UniProt Q9NQU5); conditions: derived from % inhibition at 1 μM
T1 construct: purchased
Method in brief: (§1)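 Kinase activity is measured at room temperature by filter binding, with incorporated radiolabel counted after acid termination. A 5-minute preincubation of compound, enzyme and substrate precedes addition of ATP from a kinase-dependent stock (5, 20 or 50 […]).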

HIPK1 = biological target: T2, HIPK1 (Homo sapiens, UniProt Q86Z02); conditions: for IC50: derived from % inhibition at 1 μM; for remaining activity at 1 µM: read-out: residual kinase activity HIPK1
T2 construct: purchased
T2 sequence (Q86Z02 whole entry, species assumed): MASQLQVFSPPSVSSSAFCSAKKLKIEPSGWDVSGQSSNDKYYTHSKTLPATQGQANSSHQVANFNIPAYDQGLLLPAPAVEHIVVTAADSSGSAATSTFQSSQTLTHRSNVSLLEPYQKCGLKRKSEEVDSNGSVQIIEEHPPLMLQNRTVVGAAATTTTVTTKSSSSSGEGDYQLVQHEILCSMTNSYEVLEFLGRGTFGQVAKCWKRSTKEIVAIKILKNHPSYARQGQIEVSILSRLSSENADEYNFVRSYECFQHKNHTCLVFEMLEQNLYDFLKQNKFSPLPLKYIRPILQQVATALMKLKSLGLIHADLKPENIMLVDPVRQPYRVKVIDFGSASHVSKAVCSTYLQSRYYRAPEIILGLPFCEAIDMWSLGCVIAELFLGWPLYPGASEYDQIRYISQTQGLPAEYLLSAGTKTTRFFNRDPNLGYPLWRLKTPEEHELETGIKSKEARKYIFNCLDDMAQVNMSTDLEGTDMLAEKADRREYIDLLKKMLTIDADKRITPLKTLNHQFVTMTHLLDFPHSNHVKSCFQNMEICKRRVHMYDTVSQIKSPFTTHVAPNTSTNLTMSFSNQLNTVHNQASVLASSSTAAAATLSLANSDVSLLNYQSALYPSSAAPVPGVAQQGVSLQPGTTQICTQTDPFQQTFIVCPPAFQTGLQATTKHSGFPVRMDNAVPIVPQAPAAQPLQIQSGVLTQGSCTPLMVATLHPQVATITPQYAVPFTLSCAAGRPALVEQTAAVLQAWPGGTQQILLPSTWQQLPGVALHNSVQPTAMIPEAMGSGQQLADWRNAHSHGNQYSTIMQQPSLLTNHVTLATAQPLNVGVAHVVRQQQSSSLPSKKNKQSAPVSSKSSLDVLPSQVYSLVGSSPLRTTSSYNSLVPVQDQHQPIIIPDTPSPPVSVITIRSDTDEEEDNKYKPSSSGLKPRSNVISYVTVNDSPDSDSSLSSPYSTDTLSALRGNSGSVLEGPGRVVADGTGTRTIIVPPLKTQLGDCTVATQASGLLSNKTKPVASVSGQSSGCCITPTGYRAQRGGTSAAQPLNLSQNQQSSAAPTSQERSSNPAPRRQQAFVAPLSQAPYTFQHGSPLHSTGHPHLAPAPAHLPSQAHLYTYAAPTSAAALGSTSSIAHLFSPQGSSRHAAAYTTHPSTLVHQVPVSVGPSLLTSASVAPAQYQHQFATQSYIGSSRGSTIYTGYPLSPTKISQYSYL
Method in brief: as §1

CSNK1D = biological target: T3, CSNK1D (Homo sapiens, UniProt P48730); conditions: derived from % inhibition at 1 μM
T3 construct: purchased
Method in brief: as §1

IKBKB = biological target: T4, IKBKB (Homo sapiens, UniProt O14920); conditions: derived from % inhibition at 1 μM
T4 construct: purchased
T4 sequence (O14920 1-756): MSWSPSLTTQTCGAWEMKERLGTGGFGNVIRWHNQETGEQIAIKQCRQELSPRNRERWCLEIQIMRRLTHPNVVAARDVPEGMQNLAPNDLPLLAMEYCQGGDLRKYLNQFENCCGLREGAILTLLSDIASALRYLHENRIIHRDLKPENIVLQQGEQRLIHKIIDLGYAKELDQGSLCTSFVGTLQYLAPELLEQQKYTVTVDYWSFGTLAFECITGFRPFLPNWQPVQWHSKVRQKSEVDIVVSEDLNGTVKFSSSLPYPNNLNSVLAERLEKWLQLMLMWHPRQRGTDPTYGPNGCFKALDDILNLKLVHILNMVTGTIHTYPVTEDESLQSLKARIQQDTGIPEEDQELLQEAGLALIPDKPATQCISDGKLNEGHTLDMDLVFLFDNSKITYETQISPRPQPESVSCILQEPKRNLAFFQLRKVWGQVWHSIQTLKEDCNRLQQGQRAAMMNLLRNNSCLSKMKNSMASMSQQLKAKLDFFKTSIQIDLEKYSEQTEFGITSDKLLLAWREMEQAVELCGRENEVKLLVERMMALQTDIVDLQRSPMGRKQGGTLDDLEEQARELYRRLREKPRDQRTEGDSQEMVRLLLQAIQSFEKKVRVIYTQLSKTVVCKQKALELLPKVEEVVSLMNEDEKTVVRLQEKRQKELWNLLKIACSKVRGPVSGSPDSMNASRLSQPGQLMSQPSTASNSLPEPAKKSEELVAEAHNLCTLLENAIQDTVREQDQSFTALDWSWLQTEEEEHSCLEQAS
Method in brief: as §1

LCK = biological target: T5, LCK (Homo sapiens, UniProt P06239); conditions: derived from % inhibition at 1 μM
T5 construct: purchased
T5 sequence (P06239 whole entry, species assumed): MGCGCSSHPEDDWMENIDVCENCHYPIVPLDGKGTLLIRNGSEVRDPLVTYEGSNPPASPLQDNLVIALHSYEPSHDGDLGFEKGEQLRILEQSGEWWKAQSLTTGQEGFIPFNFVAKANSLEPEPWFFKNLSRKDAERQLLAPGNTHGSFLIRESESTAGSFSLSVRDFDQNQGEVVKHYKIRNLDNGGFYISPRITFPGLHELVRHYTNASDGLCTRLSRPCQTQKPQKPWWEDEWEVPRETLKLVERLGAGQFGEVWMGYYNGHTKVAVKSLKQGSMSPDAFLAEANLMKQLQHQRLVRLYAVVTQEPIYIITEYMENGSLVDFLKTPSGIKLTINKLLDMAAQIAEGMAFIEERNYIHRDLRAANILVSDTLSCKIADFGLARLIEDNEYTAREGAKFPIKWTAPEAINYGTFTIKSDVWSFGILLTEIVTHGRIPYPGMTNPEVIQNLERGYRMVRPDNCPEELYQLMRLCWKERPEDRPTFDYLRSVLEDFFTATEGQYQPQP
Method in brief: as §1

RPS6KB1 = biological target: T6, RPS6KB1 (Homo sapiens, UniProt P23443); conditions: derived from % inhibition at 1 μM
T6 construct: purchased
Method in brief: as §1

IGF1R = biological target: T7, IGF1R (Homo sapiens, UniProt P08069); conditions: derived from % inhibition at 1 μM
T7 construct: purchased
T7 sequence (P08069 31-1367, species assumed): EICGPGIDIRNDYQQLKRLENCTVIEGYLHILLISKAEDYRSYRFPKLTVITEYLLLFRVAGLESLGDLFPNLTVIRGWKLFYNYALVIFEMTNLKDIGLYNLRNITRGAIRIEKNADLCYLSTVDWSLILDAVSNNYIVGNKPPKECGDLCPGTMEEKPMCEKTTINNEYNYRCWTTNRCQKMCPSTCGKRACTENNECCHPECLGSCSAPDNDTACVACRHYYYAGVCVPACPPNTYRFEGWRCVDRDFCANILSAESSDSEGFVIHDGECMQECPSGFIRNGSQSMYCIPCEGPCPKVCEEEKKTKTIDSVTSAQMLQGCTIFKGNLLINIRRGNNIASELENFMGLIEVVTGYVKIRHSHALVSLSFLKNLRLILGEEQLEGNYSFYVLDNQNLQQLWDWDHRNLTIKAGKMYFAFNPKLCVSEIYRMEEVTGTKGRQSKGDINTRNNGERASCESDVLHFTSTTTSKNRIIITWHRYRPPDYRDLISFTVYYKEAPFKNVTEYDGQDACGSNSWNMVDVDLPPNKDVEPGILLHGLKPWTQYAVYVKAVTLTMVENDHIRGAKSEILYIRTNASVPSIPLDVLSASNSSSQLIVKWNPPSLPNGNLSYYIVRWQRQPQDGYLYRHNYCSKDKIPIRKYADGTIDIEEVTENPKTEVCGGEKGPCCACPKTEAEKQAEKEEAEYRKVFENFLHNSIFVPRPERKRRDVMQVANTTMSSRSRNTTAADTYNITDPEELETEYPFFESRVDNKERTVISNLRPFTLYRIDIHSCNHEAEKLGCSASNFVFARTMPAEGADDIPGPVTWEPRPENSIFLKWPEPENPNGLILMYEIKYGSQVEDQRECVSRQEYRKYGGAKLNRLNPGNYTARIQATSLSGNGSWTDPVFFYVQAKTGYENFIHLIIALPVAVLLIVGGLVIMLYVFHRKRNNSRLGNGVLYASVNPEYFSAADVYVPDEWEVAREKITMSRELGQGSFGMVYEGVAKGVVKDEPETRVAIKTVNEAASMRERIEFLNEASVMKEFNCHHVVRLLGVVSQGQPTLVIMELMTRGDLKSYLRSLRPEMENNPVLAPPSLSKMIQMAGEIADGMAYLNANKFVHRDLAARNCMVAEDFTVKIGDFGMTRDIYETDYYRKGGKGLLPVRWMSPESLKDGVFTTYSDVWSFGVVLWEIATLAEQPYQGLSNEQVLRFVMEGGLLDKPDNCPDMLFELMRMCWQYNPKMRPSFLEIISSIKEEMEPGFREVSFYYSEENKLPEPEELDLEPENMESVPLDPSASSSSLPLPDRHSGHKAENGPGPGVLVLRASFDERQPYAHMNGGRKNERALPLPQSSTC
Method in brief: as §1

BRSK1 = biological target: T8, BRSK1 (Homo sapiens, UniProt Q8TDC3); conditions: derived from % inhibition at 1 μM
T8 construct: purchased
T8 sequence (Q8TDC3 1-778): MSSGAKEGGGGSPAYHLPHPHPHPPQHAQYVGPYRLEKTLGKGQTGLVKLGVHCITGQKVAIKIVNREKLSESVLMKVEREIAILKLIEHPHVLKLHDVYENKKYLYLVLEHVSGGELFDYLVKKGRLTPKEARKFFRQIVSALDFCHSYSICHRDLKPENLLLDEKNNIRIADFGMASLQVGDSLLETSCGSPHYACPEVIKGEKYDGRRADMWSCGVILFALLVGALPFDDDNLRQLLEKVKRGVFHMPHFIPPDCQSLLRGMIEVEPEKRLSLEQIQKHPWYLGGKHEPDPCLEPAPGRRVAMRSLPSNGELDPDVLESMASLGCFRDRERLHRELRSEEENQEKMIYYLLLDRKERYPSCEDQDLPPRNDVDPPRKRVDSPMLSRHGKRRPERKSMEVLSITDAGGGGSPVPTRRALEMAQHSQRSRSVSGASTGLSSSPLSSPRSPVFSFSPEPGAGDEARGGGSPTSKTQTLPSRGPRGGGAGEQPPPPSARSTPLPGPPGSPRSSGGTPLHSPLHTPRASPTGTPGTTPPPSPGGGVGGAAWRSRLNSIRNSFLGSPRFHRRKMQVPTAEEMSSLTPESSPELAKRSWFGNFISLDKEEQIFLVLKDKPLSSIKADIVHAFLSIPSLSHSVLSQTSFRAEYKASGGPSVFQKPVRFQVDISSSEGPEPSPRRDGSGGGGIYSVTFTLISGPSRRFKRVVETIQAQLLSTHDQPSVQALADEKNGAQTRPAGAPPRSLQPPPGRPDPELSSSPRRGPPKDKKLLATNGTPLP
Method in brief: as §1

PIM3 = biological target: T9, PIM3 (Homo sapiens, UniProt Q86V86); conditions: derived from % inhibition at 1 μM
T9 construct: purchased
Method in brief: as §1

MAPK10 = biological target: T10, MAPK10 (Homo sapiens, UniProt P53779); conditions: derived from % inhibition at 1 μM
T10 construct: purchased
T10 sequence (P53779 whole entry, species assumed): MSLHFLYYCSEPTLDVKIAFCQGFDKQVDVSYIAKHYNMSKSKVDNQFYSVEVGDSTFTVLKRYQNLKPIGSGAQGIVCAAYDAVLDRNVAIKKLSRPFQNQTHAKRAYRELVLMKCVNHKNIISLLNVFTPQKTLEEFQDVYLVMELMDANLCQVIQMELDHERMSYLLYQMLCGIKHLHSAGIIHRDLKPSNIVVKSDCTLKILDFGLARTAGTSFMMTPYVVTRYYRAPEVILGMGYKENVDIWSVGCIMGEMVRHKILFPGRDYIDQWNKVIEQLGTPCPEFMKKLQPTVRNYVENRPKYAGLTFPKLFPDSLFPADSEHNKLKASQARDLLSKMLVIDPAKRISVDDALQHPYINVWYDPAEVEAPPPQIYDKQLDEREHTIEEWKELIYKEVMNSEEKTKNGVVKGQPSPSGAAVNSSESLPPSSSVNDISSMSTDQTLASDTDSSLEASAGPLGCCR
Method in brief: as §1

MARK3 = biological target: T11, MARK3 (Homo sapiens, UniProt P27448); conditions: for IC50: derived from % inhibition at 1 μM
T11 construct: purchased
T11 sequence (P27448 whole entry, species assumed): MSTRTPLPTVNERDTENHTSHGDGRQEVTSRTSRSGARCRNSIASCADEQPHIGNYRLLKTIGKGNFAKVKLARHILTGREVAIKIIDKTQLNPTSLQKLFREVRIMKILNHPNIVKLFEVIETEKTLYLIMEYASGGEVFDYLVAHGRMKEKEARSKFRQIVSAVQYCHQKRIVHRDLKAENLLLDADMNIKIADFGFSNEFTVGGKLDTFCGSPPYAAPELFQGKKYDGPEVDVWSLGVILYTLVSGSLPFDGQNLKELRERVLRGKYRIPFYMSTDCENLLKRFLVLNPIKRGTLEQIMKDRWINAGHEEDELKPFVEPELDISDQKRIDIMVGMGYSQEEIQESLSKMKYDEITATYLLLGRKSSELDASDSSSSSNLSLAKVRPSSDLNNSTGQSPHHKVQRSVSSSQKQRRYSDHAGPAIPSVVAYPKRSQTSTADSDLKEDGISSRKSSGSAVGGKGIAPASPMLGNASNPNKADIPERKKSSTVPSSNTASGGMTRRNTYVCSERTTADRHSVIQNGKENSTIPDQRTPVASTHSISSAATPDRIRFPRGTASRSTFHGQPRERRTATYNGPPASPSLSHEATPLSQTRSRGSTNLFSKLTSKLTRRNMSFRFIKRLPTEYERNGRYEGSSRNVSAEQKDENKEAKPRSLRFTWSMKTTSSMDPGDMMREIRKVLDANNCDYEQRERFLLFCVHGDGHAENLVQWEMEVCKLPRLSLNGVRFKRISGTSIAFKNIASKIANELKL
Method in brief: as §1

T1 sequence (Q9NQU5 whole entry, species assumed): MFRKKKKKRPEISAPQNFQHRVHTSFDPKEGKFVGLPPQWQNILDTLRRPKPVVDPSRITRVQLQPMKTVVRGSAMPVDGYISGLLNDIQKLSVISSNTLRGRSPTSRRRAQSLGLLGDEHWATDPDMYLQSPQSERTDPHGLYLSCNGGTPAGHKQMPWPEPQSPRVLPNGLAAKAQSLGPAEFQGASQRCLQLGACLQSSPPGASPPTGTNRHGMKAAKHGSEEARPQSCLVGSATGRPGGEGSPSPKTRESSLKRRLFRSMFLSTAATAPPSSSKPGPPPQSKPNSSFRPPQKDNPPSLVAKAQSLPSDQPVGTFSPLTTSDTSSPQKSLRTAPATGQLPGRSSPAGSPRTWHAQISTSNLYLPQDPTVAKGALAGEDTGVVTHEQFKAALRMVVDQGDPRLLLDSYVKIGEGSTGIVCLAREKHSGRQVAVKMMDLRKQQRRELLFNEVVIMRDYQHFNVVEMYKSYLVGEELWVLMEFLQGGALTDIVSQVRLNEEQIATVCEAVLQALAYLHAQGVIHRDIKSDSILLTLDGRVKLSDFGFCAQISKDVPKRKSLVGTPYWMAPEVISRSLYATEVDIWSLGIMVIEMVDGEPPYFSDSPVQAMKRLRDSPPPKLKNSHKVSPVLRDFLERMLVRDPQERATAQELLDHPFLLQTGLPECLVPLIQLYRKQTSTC

SMILES	IC50 (PAK6) [nM]	IC50 (HIPK1) [nM]	IC50 (CSNK1D) [nM]	IC50 (IKBKB) [nM]	IC50 (LCK) [nM]	IC50 (RPS6KB1) [nM]	IC50 (IGF1R) [nM]	IC50 (BRSK1) [nM]	IC50 (PIM3) [nM]	IC50 (MAPK10) [nM]	IC50 (MARK3) [nM]	remaining activity at 1 µM (HIPK1) [%]	remaining activity at 1 µM (MARK3; read-out: residual kinase activity MARK3) [%]
c1ccc(Cc2c[nH]c3ncsc23)cc1 [Compound A7, 6-benzyl-4H-pyrrolo[2,3-d]thiazole]	> 1000	> 1000	1000 to 10000	1000 to 10000	10000 to 100000	1000 to 10000	10000 to 100000	1000 to 10000	1000 to 10000	> 1000	1000 to 10000		
Nc1ncsc1C#Cc1cnc2[nH]ccc2c1 [Compound A22, 5-(1H-pyrrolo[2,3-b]pyridin-5-ylethynyl)thiazol-4-ylamine]	10000 to 100000	10 to 1000	10000 to 100000	10000 to 100000	> 1000	1000 to 10000	1000 to 10000	1000 to 10000	10000 to 100000	> 1000	10 to 1000	36	15
CC(C)(C)OC(=O)Nc1nc(-c2ccncc2)sc1C#CCN1CCOCC1 [Compound A25, tert-butyl[5-(3-morpholin-4-ylprop-1-ynyl)-2-pyridin-4-ylthiazol-4-yl]-carbamate]	10000 to 100000	10 to 1000	> 1000	> 1000	> 1000	> 1000	> 1000	> 1000	> 1000	> 1000	> 1000	48	
CC(C)(C)OC(=O)Nc1ncsc1C#CCN1C(=O)c2ccccc2C1=O [Compound A26, tert-butyl{5-[3-(1,3-dioxo-1,3-dihydroisoindol-2-yl)prop-1-ynyl]-thiazol-4-yl}carbamate]	> 1000	> 1000	> 1000	> 1000	> 1000	> 1000	> 1000	> 1000	> 1000	> 1000	1000 to 10000		
Nc1ncsc1C#Cc1cccc(O)c1 [Compound A27, 3-(4-aminothiazol-5-ylethynyl)phenol]	10000 to 100000	1000 to 10000	1000 to 10000	1000 to 10000	1000 to 10000	1000 to 10000	> 1000	1000 to 10000	1000 to 10000	1000 to 10000	10000 to 100000		
